From patent US9050345B2, “Pyrrolotriazines as potassium ion channel inhibitors” (BRISTOL-MYERS SQUIBB COMPANY, priority 2013, dated 2015)

What follows are compounds tested against T1, human KV 1.5 (IKur) (Homo sapiens, UniProt P22460) (assay: block of IKur current in patch clamped L-929 cells expressing human Kv1.5). Conditions: 0.3 μM; patch clamped mammalian L-929 cells stably expressing human Kv1.5.
T1 construct: expressed in transfected cells
Type: cell-based

T1 sequence (P22460 whole entry): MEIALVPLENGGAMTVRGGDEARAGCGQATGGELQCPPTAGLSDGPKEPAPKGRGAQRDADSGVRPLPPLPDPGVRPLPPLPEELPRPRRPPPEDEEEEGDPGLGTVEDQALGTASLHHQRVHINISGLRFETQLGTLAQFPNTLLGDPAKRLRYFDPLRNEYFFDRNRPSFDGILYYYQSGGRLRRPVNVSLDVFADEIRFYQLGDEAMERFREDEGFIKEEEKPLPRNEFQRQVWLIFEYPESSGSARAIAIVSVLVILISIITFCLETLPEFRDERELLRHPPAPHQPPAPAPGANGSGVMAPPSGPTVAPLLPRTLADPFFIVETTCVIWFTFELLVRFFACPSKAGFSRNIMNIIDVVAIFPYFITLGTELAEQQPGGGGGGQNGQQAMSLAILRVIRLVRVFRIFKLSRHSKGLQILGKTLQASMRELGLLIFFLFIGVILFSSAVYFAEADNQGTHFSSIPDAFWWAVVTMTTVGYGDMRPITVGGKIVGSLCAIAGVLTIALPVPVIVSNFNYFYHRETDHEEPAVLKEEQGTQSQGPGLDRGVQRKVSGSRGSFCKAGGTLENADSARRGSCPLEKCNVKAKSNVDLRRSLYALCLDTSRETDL

SMILES	KV1_5% Inh L929 @0.3 μM [%]
NS(=O)(=O)c1cncc(-c2nc(NCC3CCCCO3)c3c(-c4ccccc4)ccn3n2)c1 (centres unmarked) [Example 102, 5-(5-phenyl-4-((tetrahydro-2H-pyran-2-yl)methylamino)pyrrolo[1,2-f][1,2,4]triazin-2-yl)pyridine-3-sulfonamide]	98.89

Same assay, conditions: L929, 0.3 μM; patch clamped mammalian L-929 cells stably expressing human Kv1.5; read-out: KV1_5% Inh L929 @0.3 μM

SMILES	inhibition at 0.3 µM [%]
O=C(c1cncc(-c2nc(NCc3ccccc3)c3c(-c4ccccc4)ccn3n2)c1)N(CCO)CCO [Example 103, 5-(4-(benzylamino)-5-phenylpyrrolo[1,2-f] [1,2,4]triazin-2-yl)-N, N-bis(2-hydroxyethyl) nicotinamide]	72.2
NS(=O)(=O)c1cncc(-c2nc(NCc3ccccn3)c3c(-c4cccc(F)c4)ccn3n2)c1 [Example 104, 5-(5-(3-fluorophenyl)-4-(pyridin-2-ylmethylamino)pyrrolo[1,2-f][1,2,4]triazin-2-yl)pyridine-3-sulfonamide]	95.7
COc1ccc(-c2ccn3nc(-c4cncc(S(N)(=O)=O)c4)nc(NCc4ccccn4)c23)cc1 [Example 105, 5-(5-(4-methoxyphenyl)-4-(pyridin-2-ylmethylamino)pyrrolo[1,2-f][1,2,4]triazin-2-yl)pyridine-3-sulfonamide]	89.3
NS(=O)(=O)c1cncc(-c2nc(NCc3ccccn3)c3c(-c4ccc(N5CCOCC5)cc4)ccn3n2)c1 [Example 106, 5-(5-(4-morpholinophenyl)-4-(pyridin-2-ylmethylamino)pyrrolo[1,2-f][1,2,4]triazin-2-yl)pyridine-3-sulfonamide]	16
N#Cc1ccc(-c2ccn3nc(-c4cncc(S(N)(=O)=O)c4)nc(NCc4ccccn4)c23)cc1 [Example 107, 5-(5-(-4-cyanophenyl)-4-(pyridin-2-ylmethylamino)pyrrolo[1,2-f][1,2,4]triazin-2-yl)pyridine-3-sulfonamide]	15.6
NS(=O)(=O)c1cncc(-c2nc(NCc3cccnn3)c3c(-c4ccccc4)ccn3n2)c1 [Example 108, 5-(5-phenyl-4-(pyridazin-3-ylmethylamino)pyrrolo [1,2-f][1,2,4]triazin-2-yl)pyridine-3-sulfonamide]	72
NC(=O)c1cccc(-c2nc(NCc3ccccn3)c3c(-c4ccccc4)ccn3n2)c1 [Example 109, 3-(5-phenyl-4-(pyridin-2-ylmethylamino)pyrrolo[1,2-f][1,2,4]triazin-2-yl)benzamide]	98.2
CS(=O)(=O)Nc1cncc(-c2nc(NCc3ccccn3)c3c(-c4ccc(F)cc4)ccn3n2)c1 [Example 110, N-(5-(5-(4-fluorophenyl)-4-(pyridin-2-ylmethylamino)pyrrolo[1,2-f] [1,2,4]triazin-2-yl)pyridin-3-yl) methanesulfonamide]	81.4
COc1ccc(-c2nc(NCc3ccccn3)c3c(-c4ccccc4)ccn3n2)cn1 [Example 111, 2-(6-methoxypyridin-3-yl)-5-phenyl-N-(pyridin-2-ylmethyl)pyrrolo[1,2-f] [1,2,4]triazin-4-amine]	97
NC(=O)c1ccc(-c2nc(NCc3ccccn3)c3c(-c4ccccc4)ccn3n2)cc1 [Example 112, 4-(5-phenyl-4-(pyridin-2-ylmethylamino)pyrrolo[1,2-f][1,2,4]triazin-2-yl)benzamide]	99
CC(=O)Nc1ccc(NC(=O)c2nc(NCc3ccccc3)c3c(-c4ccccc4)ccn3n2)cc1 [Example 113, N-(4-acetamidophenyl)-4-(benzylamino)-5-phenylpyrrolo[1,2-f] [1,2,4] triazine-2-carboxamide]	88.4
NC(=O)c1ccccc1NC(=O)c1nc(NCc2ccccc2)c2c(-c3ccccc3)ccn2n1 [Example 114, 4-(benzylamino)-N-(2-carbamoylphenyl)-5-phenylpyrrolo [1,2-f][1,2,4] triazine-2-carboxamide]	35.2
NC(=O)c1ccc(NC(=O)c2nc(NCc3ccccc3)c3c(-c4ccccc4)ccn3n2)cc1 [Example 115, 4-(benzylamino)-N-(4-carbamoylphenyl)-5-phenylpyrrolo [1,2-f][1,2,4] triazine-2-carboxamide]	90
